# Test results: patent US20250340574A1, “MODULATORS OF CYSTIC FIBROSIS TRANSMEMBRANE CONDUCTANCE REGULATOR” (Vertex Pharmaceuticals Incorporated, priority 2022, published 2025)
# Where two headings read alike, the source gives them in different places.
# Experiments:
# [1] = biological target: T1, CFTR (F508del/MF-HBE cells) (Homo sapiens, UniProt P13569, DEL508-508); test: Ussing chamber assay of CFTR-mediated short-circuit currents, Assay D (single concentration of 1 μM); format: cell-based; settings: with 44 nM potentiator and 18 μM Tezacaftor, 20% human serum; for D activity at 1 μM (%): 18-24 hours
# T1 construct: human bronchial epithelial (HBE) cells derived from CF subjects heterozygous for F508del and a minimal function CFTR mutation (F508del/MF-HBE); endogenous in cells; host or cells: Primary human bronchial epithelial cells from CF subjects (F508del/MF genotype), differentiated at an air-liquid interface
# Procedure, shortened: (§1)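 F508del/MF-HBE cells were preincubated 18–24 h at 37 °C in 20% human serum with corrector plus 18 μM tezacaftor and either 33 nM (concentration series) or 44 nM (1 μM single point) of the aminotrifluoromethyl triazatricyclic potentiator. Ussing chamber, Vhold=0 mV, 37 °C; forskolin 20 μM stimulation, CFTR ISC taken as inhibitor-cocktail-sensitive current.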
# [2] = biological target: T1, CFTR (F508del/MF-HBE cells); test: Ussing chamber assay of CFTR-mediated short-circuit currents, Assay C (0.026 μM to 25 μM, 6 concentrations); format: cell-based; settings: with 33 nM potentiator and 18 μM Tezacaftor, 20% human serum; for Emax: read-out: C Max activity (%)
# Procedure, shortened: as §1
# T1 sequence (P13569 with tags, fused parts or gaps DEL508-508): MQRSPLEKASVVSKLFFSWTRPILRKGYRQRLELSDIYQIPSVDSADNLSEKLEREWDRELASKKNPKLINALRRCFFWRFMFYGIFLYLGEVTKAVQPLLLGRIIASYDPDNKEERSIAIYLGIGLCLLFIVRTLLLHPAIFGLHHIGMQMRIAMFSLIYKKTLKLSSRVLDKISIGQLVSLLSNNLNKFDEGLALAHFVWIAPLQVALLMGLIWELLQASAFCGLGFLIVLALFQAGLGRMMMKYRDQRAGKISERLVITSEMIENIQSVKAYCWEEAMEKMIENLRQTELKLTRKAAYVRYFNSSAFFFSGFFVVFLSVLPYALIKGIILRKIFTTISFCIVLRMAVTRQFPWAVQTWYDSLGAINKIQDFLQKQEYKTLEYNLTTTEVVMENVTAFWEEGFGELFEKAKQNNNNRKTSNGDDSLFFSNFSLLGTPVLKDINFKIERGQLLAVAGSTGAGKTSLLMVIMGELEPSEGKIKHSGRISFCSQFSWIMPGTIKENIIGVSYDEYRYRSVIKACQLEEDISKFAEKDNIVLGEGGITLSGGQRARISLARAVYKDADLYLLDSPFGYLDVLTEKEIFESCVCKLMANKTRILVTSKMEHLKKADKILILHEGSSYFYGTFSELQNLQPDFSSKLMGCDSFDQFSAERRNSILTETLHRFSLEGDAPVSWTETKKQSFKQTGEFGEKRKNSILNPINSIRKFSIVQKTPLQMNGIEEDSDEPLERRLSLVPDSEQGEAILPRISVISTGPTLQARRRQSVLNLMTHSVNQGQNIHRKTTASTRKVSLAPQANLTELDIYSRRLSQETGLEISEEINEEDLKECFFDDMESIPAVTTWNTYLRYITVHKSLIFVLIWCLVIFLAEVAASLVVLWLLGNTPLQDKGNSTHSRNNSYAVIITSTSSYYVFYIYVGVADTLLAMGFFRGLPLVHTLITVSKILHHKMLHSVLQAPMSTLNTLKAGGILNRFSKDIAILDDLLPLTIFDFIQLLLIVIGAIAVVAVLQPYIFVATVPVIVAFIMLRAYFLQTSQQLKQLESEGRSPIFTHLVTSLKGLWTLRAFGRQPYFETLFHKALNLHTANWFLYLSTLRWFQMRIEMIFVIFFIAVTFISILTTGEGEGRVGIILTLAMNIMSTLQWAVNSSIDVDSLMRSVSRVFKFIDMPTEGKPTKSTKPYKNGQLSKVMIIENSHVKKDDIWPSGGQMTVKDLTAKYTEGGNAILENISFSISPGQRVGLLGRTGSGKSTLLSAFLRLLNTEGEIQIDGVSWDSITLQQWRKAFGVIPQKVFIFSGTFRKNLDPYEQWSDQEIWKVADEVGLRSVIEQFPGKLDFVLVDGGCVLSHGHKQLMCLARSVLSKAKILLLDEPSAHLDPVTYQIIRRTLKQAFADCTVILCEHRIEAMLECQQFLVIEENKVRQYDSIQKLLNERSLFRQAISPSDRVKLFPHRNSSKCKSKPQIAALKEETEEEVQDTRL
D activity at 1 μM (%) [1],Emax ([2]; 18-24 hours),EC50 [2],D act. at 1 μM (%) [1],Emax [2],SMILES
+++ (+++ is >60%),> 60%,< 1000 nM,–,–,Cc1cccc(C)c1-c1nc2nc(c1C)OC[C@@H](C[C@H]1CCCCO1)N(Cc1cnc3cc(C4CC4)n(C)c3n1)C(=O)c1cccc(c1)S(=O)(=O)N2 [Compound I-193]
+++ (+++ is >60%),> 60%,1000 to 3000 nM,–,–,Cc1cccc(C)c1-c1cc2nc(n1)NS(=O)(=O)c1cccc(c1)C(=O)N(Cc1cnc3oc(C)c(C4CC4)c3n1)[C@H](CC13CC(C1)C3)CO2 [Compound I-86]
+++ (+++ is >60%),> 60%,< 1000 nM,–,–,Cc1cccc(C)c1-c1cc2nc(n1)NS(=O)(=O)c1cccc(c1)C(=O)N(Cc1cnc3cc(C(C)(C)C)n(C)c3n1)[C@H](CC(C)(C)C)CO2 [Compound I-239]
+++ (+++ is >60%),> 60%,1000 to 3000 nM,–,–,Cc1cccc(C)c1-c1nc2nc(c1C)OC[C@@H](CC(C)(C)C)N(Cc1cnc3oc(C(C)C)cc3n1)C(=O)c1cccc(c1)S(=O)(=O)N2 [Compound I-110]
+++ (+++ is >60%),> 60%,< 1000 nM,–,–,Cc1cccc(C)c1-c1nc2nc(c1C)OC[C@@H](CC1(C)CC1)N(Cc1cnc3cc(C(C)(C)C)n(C)c3n1)C(=O)c1cccc(c1)S(=O)(=O)N2 [Compound I-222]
–,–,< 1000 nM,+++ (+++ is >60%),> 60%,"Cc1cccc(C)c1-c1cc2nc(n1)NS(=O)(=O)c1cccc(c1)C(=O)N(Cc1cnc3cc(C4(C)CC4)n(C)c3n1)[C@@H](C(C1CCC1)C1CCC1)CO2 (single isomer, unassigned) [IV-20, 11-[di(cyclobutyl)methyl]-6-(2,6-dimethylphenyl)-12-[[5-methyl-6-(1-methylcyclopropyl)pyrrolo[2,3-b]pyrazin-3-yl]methyl]-2,2-dioxo-9-oxa-2λ^6-thia-3,5,12,19-tetrazatricyclo[12.3.1.14,8]nonadeca-1(18),4(19),5,7,14,16-hexaen-13-one]"
+++ (+++ is >60%),> 60%,< 1000 nM,–,–,Cc1cccc(C)c1-c1nc2nc(c1C)OC[C@@H](CC(C)(C)C)N(Cc1cnc3cc(C(C)C)n(C)c3n1)C(=O)c1cccc(c1)S(=O)(=O)N2 [Compound I-168]
–,–,3000 to 30000 nM,+++ (+++ is >60%),> 60%,Cc1cccc(C)c1-c1cc2nc(n1)NS(=O)(=O)c1cccc(c1)C(=O)N(Cc1cnc3oc(C4CCOCC4)cc3n1)[C@H](CC1(C)CC1)CO2 [IV-27]
+++ (+++ is >60%),> 60%,< 1000 nM,–,–,Cc1cccc(C)c1-c1nc2nc(c1C)OC[C@@H](CC13CC(C1)C3)N(Cc1cnc3oc(C4(C)CC4)cc3n1)C(=O)c1cccc(c1)S(=O)(=O)N2 [Compound I-231]
–,–,< 1000 nM,+++ (+++ is >60%),> 60%,Cc1cccc(C)c1-c1cc2nc(n1)NS(=O)(=O)c1cccc(c1)C(=O)N(Cc1cnc3cc(C(C)(C)C)n(C)c3n1)[C@@H](C(C(C)C)C(C)C)CO2 [IV-32]
+++ (+++ is >60%),> 60%,< 1000 nM,–,–,Cc1cccc(C)c1-c1cc2nc(n1)NS(=O)(=O)c1cccc(c1)C(=O)N(Cc1cnc3cc(C(C)(C)C)n(C)c3n1)[C@H](COC(C)C)CO2 [Compound I-185]
+++ (+++ is >60%),> 60%,1000 to 3000 nM,–,–,COc1c2nc(nc1-c1c(C)cccc1C)NS(=O)(=O)c1cccc(c1)C(=O)N(Cc1cnc3cc(C(C)C)n(C)c3n1)[C@H](CC(C)(C)C)CC2 [Compound I-158]
–,–,< 1000 nM,+++ (+++ is >60%),> 60%,Cc1cccc(C)c1-c1cc2nc(n1)NS(=O)(=O)c1cccc(c1)C(=O)N(Cc1cnc3oc(C(C)(C)C)cc3n1)[C@@H](C(C(C)C)C(C)C)CO2 [IV-36]
–,–,< 1000 nM,+++ (+++ is >60%),> 60%,"Cc1cccc(CC(C)C)c1-c1nc2nc(c1C)OC[C@@H](CC(C)(C)C)N(Cc1cnc3cc(C4(C)CC4)n(C)c3n1)C(=O)c1cccc(c1)S(=O)(=O)N2 (atropisomer, axis not shown) [IV-19]"
+++ (+++ is >60%),> 60%,< 1000 nM,–,–,Cc1cccc(C)c1-c1cc2nc(n1)NS(=O)(=O)c1cccc(c1)C(=O)N(Cc1cnc3cc(C4(C)CC4)n(C)c3n1)[C@H](COC(C)C)CO2 [Compound I-240]
+++ (+++ is >60%),> 60%,< 1000 nM,–,–,Cc1cccc(C)c1-c1nc2nc(c1C)OC[C@@H](C[C@H]1CCCCO1)N(Cc1cnc3cc(C(C)C)n(C)c3n1)C(=O)c1cccc(c1)S(=O)(=O)N2 [Compound I-194]
+++ (+++ is >60%),> 60%,< 1000 nM,–,–,"Cc1cccc(CC(C)C)c1-c1nc2nc(c1C)OC[C@@H](CC(C)(C)C)N(Cc1cnc3oc(C4CC4)cc3n1)C(=O)c1cccc(c1)S(=O)(=O)N2 (atropisomer, axis not shown) [Compound I-137]"

D activity at 1 μM (%) [1],Emax ([2]; 18-24 hours),EC50 [2],D act. at 1 μM (%) [1],Emax [2],SMILES
–,–,3000 to 30000 nM,+++ (+++ is >60%),> 60%,Cc1cccc(C)c1-c1cc2nc(n1)NS(=O)(=O)c1cccc(c1)C(=O)N(Cc1cnc3oc(-c4ccnn4C)cc3n1)[C@H](CC1(C)CC1)CO2 [IV-30]
+++ (+++ is >60%),> 60%,< 1000 nM,–,–,"Cc1cccc(CC2CCCC2)c1-c1nc2nc(c1C)OC[C@@H](CC(C)(C)C)N(Cc1cnc3oc(C4CC4)cc3n1)C(=O)c1cccc(c1)S(=O)(=O)N2 (atropisomer, axis not shown) [Compound I-195]"
+++ (+++ is >60%),–,–,–,–,Cc1cccc(C)c1-c1cc2nc(n1)NS(=O)(=O)c1cccc(c1)C(=O)N(Cc1cnc3oc(C(C)C)c(C(F)(F)F)c3n1)[C@H](CC13CC(C1)C3)CO2 [Compound I-114]
+++ (+++ is >60%),–,–,–,–,Cc1cccc(C)c1-c1cc2nc(n1)NS(=O)(=O)c1cccc(c1F)C(=O)N(Cc1cnc3cc(C(C)C)n(CCO)c3n1)[C@H](CC1(C)CC1)CO2 [Compound I-215]
+++ (+++ is >60%),–,–,–,–,"COCCn1c(C(C)C)cc2ncc(CN3C(=O)c4cccc(c4)S(=O)(=O)Nc4nc(cc(-c5c(C)cccc5C)n4)OC[C@H]3CC(C)(C)C)nc21 [Compound I-117, (11R)-6-(2,6-dimethylphenyl)-11-(2,2-dimethylpropyl)-12-[[6-isopropyl-5-(2-methoxyethyl)pyrrolo[2,3-b]pyrazin-3-yl]methyl]-2,2-dioxo-9-oxa-2λ^6-thia-3,5,12,19-tetrazatricyclo[12.3.1.14,8]nonadeca-1(18),4(19),5,7,14,16-hexaen-13-one]"
+++ (+++ is >60%),–,–,–,–,Cc1cccc(C)c1-c1cc2nc(n1)NS(=O)(=O)c1cccc(c1)C(=O)N(Cc1nc3cc(C(C)C)oc3nc1C(F)(F)F)[C@H](CC1(C)CC1)CO2 [Compound I-142]
+++ (+++ is >60%),–,–,–,–,Cc1cccc(C)c1-c1cc2nc(n1)NS(=O)(=O)c1cccc(c1)C(=O)N(Cc1nc3cc(C4(C)CC4)oc3cc1F)[C@H](CC13CC(C1)C3)CO2 [Compound I-233]
+++ (+++ is >60%),–,–,–,–,Cc1cccc(C)c1-c1nc2nc(c1C)OC[C@@H](CCC(C)(C)C)N(Cc1cnc3cc(C4CC4)n(C)c3n1)C(=O)c1cccc(c1)S(=O)(=O)N2 [Compound I-183]
+++ (+++ is >60%),–,–,–,–,Cc1cccc(C)c1-c1cc2nc(n1)NS(=O)(=O)c1cccc(c1)C(=O)N(Cc1cnc3cc(C(C)C)n(C)c3n1)[C@H](Cc1ccccc1)CO2 [Compound I-190]
+++ (+++ is >60%),–,–,–,–,Cc1cccc(C)c1-c1cc2nc(n1)NS(=O)(=O)c1cccc(c1)C(=O)N(Cc1cnc3oc(C4CC4)cc3n1)[C@H](C[C@@H]1CCCO1)CO2 (stereo in doubt) [Compound I-45]
+++ (+++ is >60%),–,–,–,–,"Cc1cccc(C(C)C)c1-c1nc2nc(c1C)OC[C@@H](CC(C)(C)C)N(Cc1cnc3oc(C(C)C)cc3n1)C(=O)c1cccc(c1)S(=O)(=O)N2 (atropisomer, axis not shown) [Compound I-135]"
+++ (+++ is >60%),–,–,–,–,"Cc1cccc(C)c1-c1cc2nc(n1)NS(=O)(=O)c1cccc(c1)C(=O)N(Cc1nc3c(cc(C(C)C)n3C)s1)[C@H](CC(C)(C)C)CO2 [III-20, (11R)-6-(2,6-dimethylphenyl)-11-(2,2-dimethylpropyl)-12-[(5-isopropyl-4-methyl-pyrrolo[2,3-d]thiazol-2-yl)methyl]-2,2-dioxo-9-oxa-2λ^6-thia-3,5,12,19-tetrazatricyclo[12.3.1.14,8]nonadeca-1(18),4(19),5,7,14,16-hexaen-13-one]"
+++ (+++ is >60%),–,–,–,–,"Cc1cccc(C)c1-c1cc2nc(n1)NS(=N)(=O)c1cccc(c1)C(=O)N(Cc1cnc3oc(C4CC4)cc3n1)[C@H](CC(C)(C)C)CO2 (single isomer, unassigned) [Compound I-147]"
+++ (+++ is >60%),–,–,–,–,Cc1cccc(C)c1-c1cc2nc(n1)NS(=O)(=O)c1cccc(c1)C(=O)N(Cc1ncc3oc(C4CC4)cc3n1)[C@H](COC(C)C)CO2 [Compound I-200]
+++ (+++ is >60%),–,–,–,–,Cc1cccc(C)c1-c1cc2nc(n1)NS(=O)(=O)c1cccc(c1)C(=O)N(Cc1nc3cc(C4(C)CC4)oc3cc1F)[C@H](COC(C)C)CO2 [Compound I-253]
–,–,–,+++ (+++ is >60%),–,Cc1cccc(C)c1-c1cc2nc(n1)NS(=O)(=O)c1cccc(c1)C(=O)N(Cc1cnc3oc(C(C)(C)C)cc3n1)[C@@H](CCC1(C)CC1)CO2 [IV-10]
